Tested on: SARS-CoV-2-NLuc in A549-hACE2 cells
Test: microbe, parasite or virus in culture
Type: cell-based
Details: Severe acute respiratory syndrome coronavirus 2, 48 h, read-out: MPro EC50

| Structure (SMILES) | EC50 [nM] |
| --- | --- |
| O=C1C[C@H](n2c(=O)[nH]c3cc(-c4ccccc4Cl)sc3c2=O)CCCN1 (single isomer, unassigned) [Example 21] | 22.3 |

Same assay, conditions: Severe acute respiratory syndrome coronavirus 2, 48 h; read-out: MPro EC50

| Structure (SMILES) | EC50 [nM] |
| --- | --- |
| COc1cnc(Cl)c(-c2cc3c(s2)c(=O)n([C@@H]2CCCNC(=O)C2)c(=O)n3CCC#N)c1 [Example 50, (R)-3-(6-(2-chloro-5-methoxypyridin-3-yl)-2,4-dioxo-3-(2-oxoazepan-4-yl)-3,4-dihydrothieno[3,2-d]pyrimidin-1(2H)-yl)propanenitrile] | > 1000 |
| O=C1CC(n2c(=O)[nH]c3cc(-c4ccccc4Cl)sc3c2=O)CCN1 (stereo not shown) [Example 1, 6-(2-chlorophenyl)-3-(2-oxopiperidin-4-yl)thieno[3,2-d]pyrimidine-2,4(1H,311)-dione] | 255 |
| O=C1CC(n2c(=O)[nH]c3cc(-c4c(Cl)cccc4-c4ccc5c(c4)OC(F)(F)O5)sc3c2=O)CCN1 (stereo not shown) [Example 13, 6-(2-chloro-6-(2,2-difluorobenzo[d][1,3]dioxol-5-yl)phenyl)-3-(2-oxopiperidin-4-yl)thieno[3,2-d]pyrimidine-2,4(1H,3H)-dione] | 157 |
| O=C1C[C@@H](n2c(=O)[nH]c3cc(-c4ccccc4Cl)sc3c2=O)CCN1 [Example 5, (S)-6-(2-chlorophenyl)-3-(2-oxopiperidin-4-yl)thieno[3,2-d]pyrimidine-2,4(1H,3H)-dione] | 92.7 |
| Cc1noc(C)c1-c1cc2[nH]c(=O)n([C@H]3CCNC(=O)C3)c(=O)c2s1 [Example 19, (S)-6-(3,5-dimethylisoxazol-4-yl)-3-(2-oxopiperidin-4-yl)thieno[3,2-d]pyrimidine-2,4(1H,3H)-dione] | 35800 |
| COc1cc(-c2cc3c(s2)c(=O)n([C@@H]2CCCNC(=O)C2)c(=O)n3CCC(=O)N(C)C)c(Cl)cc1F [Example 40, (R)-3-(6-(2-chloro-4-fluoro-5-methoxyphenyl)-2,4-dioxo-3-(2-oxoazepan-4-yl)-3,4-dihydrothieno[3,2-d]pyrimidin-1(2H)-yl)-N,N-dimethylpropanamide] | 137 |
| COc1cc(-c2cc3c(s2)c(=O)n([C@@H]2CCCNC(=O)C2)c(=O)n3CCOC(F)(F)F)c(Cl)cc1F [Example 38, (R)-6-(2-chloro-4-fluoro-5-methoxyphenyl)-3-(2-oxoazepan-4-yl)-1-(2-(trifluoromethoxy)ethyl)thieno[3,2-d]pyrimidine-2,4(1H,3H)-dione] | 208 |
| COc1cc(-c2cc3[nH]c(=O)n([C@@H]4CCCNC(=O)C4)c(=O)c3o2)c(Cl)cc1F [Example 59, (R)-6-(2-chloro-4-fluoro-5-methoxyphenyl)-3-(2-oxoazepan-4-yl)furo[3,2-d]pyrimidine-2,4(1H,3H)-dione] | 651 |
| COc1cc(-c2cc3c(s2)c(=O)n([C@H]2CCCNC(=O)C2)c(=O)n3C)c(Cl)cc1F [Example 33, (S)-6-(2-chloro-4-fluoro-5-methoxyphenyl)-1-methyl-3-(2-oxoazepan-4-yl)thieno[3,2-d]pyrimidine-2,4(1H,3H)-dione] | 747 |
